# US10709710B2, “Composition comprising uric acid for the treatment treated with mechanical thrombectomy” (Hospital Clinic de Barcelona, priority 2017, dated 2020)
# How the values were obtained:
# hippocampus cells = settings: culture of hippocampus cells; cited from earlier work
# [1] = tested on: patients with acute stroke; settings: URICO-ICTUS phase 2b/3, cited from earlier work
# [2] = tested on: ischemic brain stroke patients treated with mechanical thrombectomy; assay: Treatment with uric acid of ischemic brain stroke patients treated with intravenous thrombolysis and mechanical thrombectomy; format: in vivo, humans
# Description: Example 1. Treatment with uric acid of ischemic brain stroke patients treated with intravenous thrombolysis and mechanical thrombectomy.
# In total, 45 ischemic brain stroke patients were enrolled in this study and received the combination of thrombolytic treatment (using rt-PA) and mechanical thrombectomy. […] The patients of this study were recruited at eight centres and, in all the cases, the corresponding informed consent was obtained from the patient or its legal representative.
# (§1) All patients that were selected for the study received one standard dose ([…]) of rtPA (in the present case, intravenous alteplase) within the 4.5 hours following the brain stroke. During infusion of intravenous alteplase, patients were assigned randomly in a 1:1 proportion to the uric acid group or to the placebo group, so that they received 500 ml of intravenous solution of 1000 mg of uric acid or placebo (physiologic serum comprising 0.1% […] and 5% mannitol), respectively, both contained in glass bottles covered with opaque yellow bags tag in identical manner. Said treatment with uric acid or placebo was applied during 90 minutes.
# The mechanical thrombectomy procedure was carried in accordance to the procedure pointed out in the REVASCAT assay (Jovin T G, Chamorro A, Cobo E, de Miguel M A, Molina C A, Rovira A, San Román L, Serena J, Abilleira S, Ribó M, Millán M, Urra X, Cardona P, López-Cancio E, Tomasello A, Castaño C, Blasco J, Aja L, Dorado L, Quesada H, Rubiera M, Hernandez-Pérez M, Goyal M, Demchuk A M, von Kummer R, Gallofré M, Dávalos A; REVASCAT Trial Investigators.. Thrombectomy within 8 hours after symptom onset in ischemic stroke. N Engl J Med. 2015; 372:2296-306) and it was started before the 90 minutes of the infusion of the composition with uric acid or placebo had elapsed.
# To determine if the revascularization was successful the conventional technique of digital angiography by subtraction was used. Successful vessel revascularization was considered that with grade 2b (indicating reperfusion of from 50% to 90% of the damaged zone), or grade 3 (complete reperfusion of the damaged zone) in accordance with the modified Thrombolysis in Cerebral Infarction (hereinafter, mTICI) scale of 0 to 3.
# In addition, certain parameters (death, incidence of intracranial hemorrhages and incidence of gout attacks) were measured in order to determine the safety of the new treatment (treatment of the present invention).
# [3] = tested on: occlusion of the middle cerebral artery; settings: adult rat; uric acid 24 hours before the occlusion or 1 hour after the reperfusion; cited from earlier work
# [4] = tested on: patients with ischemic brain stroke not treated with mechanical thrombectomy; assay: Same type of study in ischemic brain stroke patients not treated with mechanical thrombectomy; format: in vivo, humans
# Description: as §1
# The same type of study was carried out with other subpopulations with ischemic brain stroke (not treated with mechanical thrombectomy, but the rest of the treatment and the procedure was the same).
# [5] = tested on: thromboembolism model of focal cerebral ischemia; settings: rat thromboembolism model; synergic with rtPA; cited from earlier work
# [6] = in words, with mechanical thrombectomy
# [7] = with mechanical thrombectomy, uric acid group n = 24
# [8] = Patients which consume alcohol, uric acid n = 10
# [9] = Patients which have suffered previous brain stroke, uric acid n = 30
# [10] = Patients with atrial fibrillation, uric acid n = 35
# [11] = Patients with cardioembolism, uric acid n = 86
# [12] = Patients with coronary disease, uric acid n = 31
# [13] = Patients with diabetes, uric acid n = 55
# [14] = Patients with dyslipidaemia, uric acid n = 81
# [15] = Smoking patients, uric acid n = 35
# [16] = Women patients, uric acid n = 100
# [17] = general population not treated with mechanical thrombectomy, uric acid n = 187
# [18] = in words, general population without mechanical thrombectomy
smiles,measurement,setting,value
"O=c1[nH]c(=O)c2[nH]c(=O)[nH]c2[nH]1 [Uric acid, uric acid]",protection against excitotoxic damage by glutamate,hippocampus cells,protects against excitotoxic damage by glutamate
same,safety of uric acid in combination with the standard thrombolytic treatment (alteplase),[1],safe
same,proportion of patients with excellent results at 90 days,[1]; combined with alteplase,no change was seen
same,"successfulness in the revascularization, uric acid vs placebo","[2]; in words, mTICI grade 2b or 3",no significant differences
same,"complete independence of the patients at 90 days (Barthel index score of 95-100), uric acid vs placebo",[2]; [6],statistically significant and surprising improvement
same,"good results at 90 days (mRS score of between 0-2), uric acid vs placebo",[2]; [6],statistically significant and surprising improvement
same,"growth of the infarcted zone at 72 hours from the treatment, uric acid vs placebo",[2]; [6],statistically significant and surprising improvement
same,"rest of measured parameters, uric acid vs placebo",[2]; [6],positive and improvement tendency
same,"safety: death, incidence of intracranial hemorrhages and incidence of gout attacks, uric acid vs placebo",[2]; [6],no differences were observed
same,"mTICI Score 0, number of patients","[2]; revascularization by digital subtraction angiography, uric acid 1000 mg i.v. + rtPA + mechanical thrombectomy, n = 24",3
same,"mTICI Score 0, share of group (in parentheses)","[2]; revascularization by digital subtraction angiography, uric acid group n = 24",(13)
same,"mTICI Score 1, number of patients",[2]; uric acid group n = 24,0
same,"mTICI Score 2a, number of patients",[2]; uric acid group n = 24,1
same,"mTICI Score 2a, share of group (in parentheses)",[2]; uric acid group n = 24,(4)
same,"mTICI Score 2b, number of patients",[2]; uric acid group n = 24,7
same,"mTICI Score 2b, share of group (in parentheses)",[2]; uric acid group n = 24,(29)
same,"mTICI Score 2b/3 (successful revascularization), number of patients",[2]; uric acid group n = 24,20
same,"mTICI Score 2b/3 (successful revascularization), share of group (in parentheses)",[2]; uric acid group n = 24,(83)
same,"mTICI Score 3, number of patients",[2]; uric acid group n = 24,13
same,"mTICI Score 3, share of group (in parentheses)",[2]; uric acid group n = 24,(54)
same,"mRS score of between 0-2 at 90 días, %","[2]; with mechanical thrombectomy, uric acid 1000 mg i.v. + rtPA, n = 24",(66.6) %
same,"Barthel index score of 95-100 at 90 days, %",[2]; [7],(66.6) %
same,"Growth of the infarcted zone at 72 hours of the treatment, mean",[2]; [7],-33.2 mL
same,"NIHSS score 0 at 90 days, %",[2]; [7],(37.5) %
same,"Volume of the infarcted zone at 72 hours of the treatment measured by means of magnetic resonance image of the brain, mean",[2]; [7],17.2
same,lipid peroxidation,[3],reduces
same,reactive oxygen species accumulation,[3],suppresses
same,resulting cerebral infarction,[3],significantly reduces
same,"Barthel index score of 95-100 at 90 days, %","[4]; Men patients, uric acid n = 87",(50.6) %
same,"mRS score of between 0-2 at 90 dies, %","[4]; Men patients, uric acid n = 87",(51.7) %
same,"Barthel index score of 95-100 at 90 days, %",[4]; [8],(20) %
same,"mRS score of between 0-2 at 90 dies, %",[4]; [8],(40) %
same,"Barthel index score of 95-100 at 90 days, %",[4]; [9],(40) %
same,"mRS score of between 0-2 at 90 dies, %",[4]; [9],(43.3) %
same,"Barthel index score of 95-100 at 90 days, %",[4]; [10],(31.4) %
same,"mRS score of between 0-2 at 90 dies, %",[4]; [10],(42.9) %
same,"Barthel index score of 95-100 at 90 days, %",[4]; [11],(45.3) %
same,"mRS score of between 0-2 at 90 dies, %",[4]; [11],(48.8) %
same,"Barthel index score of 95-100 at 90 days, %",[4]; [12],(51.6) %
same,"mRS score of between 0-2 at 90 dies, %",[4]; [12],(45.2) %
same,"Barthel index score of 95-100 at 90 days, %",[4]; [13],(45.8) %
same,"mRS score of between 0-2 at 90 dies, %",[4]; [13],(45.5) %
same,"Barthel index score of 95-100 at 90 days, %",[4]; [14],(50.6) %
same,"mRS score of between 0-2 at 90 dies, %",[4]; [14],(49.4) %
same,"mRS score of between 0-2 at 90 dies, %","[4]; Patients with hypertension (arterial pressure over 160 mmHg), uric acid n = 131",(48.9) %
same,"Barthel index score of 95-100 at 90 days, %","[4]; Patients with hypertension, uric acid n = 131",(45.8) %
same,"mRS score of between 0-2 at 90 dies, %","[4]; Patients with large vessel arteriosclerosis (arterial stenosis +2250%), uric acid n = 19",(31.6) %
same,"Barthel index score of 95-100 at 90 days, %","[4]; Patients with large vessel arteriosclerosis, uric acid n = 19",(21.1) %
same,"Barthel index score of 95-100 at 90 days, %",[4]; [15],(42.9) %
same,"mRS score of between 0-2 at 90 dies, %",[4]; [15],(50) %
same,"Barthel index score of 95-100 at 90 days, %",[4]; [16],(42) %
same,"mRS score of between 0-2 at 90 dies, %",[4]; [16],(50) %
same,"Barthel index score of 95-100 at 90 days, %",[4]; [17],45.6%
same,"mRS score of between 0-2 at 90 dies, %",[4]; [17],44.7%
same,effect in the percentage of patients with Barthel index score 95-100,[4]; [18],only a minimal effect
same,effect in the percentage of patients with an mRS score of between 0 and 2 at 90 days,[4]; [18],did not show a detectable effect
same,neuroprotective effect,[5],neuroprotective
